The record followed here is patent US20240209019A1, “COMPOUNDS AND METHODS FOR TREATING HYPERKALEMIA” (ARDELYX, INC., priority 2019, published 2024).

Each structure is given as a SMILES string.

This assay deals with HSD2 (Homo sapiens (Human), UniProt P80365). Kind of assay: HSD2 activity: cortisol conversion in human descending colon organoid monolayer cultures (Example 112). The settings on record: human descending colon epithelial cultures on transwells; 30 minute pre-incubation, then 40 nM cortisol for four hours; cortisol HTRF assay. In general terms: Time-resolved FRET reads energy transfer from a long-lived donor to a nearby acceptor.
Sequence of HSD2 (P80365 whole entry): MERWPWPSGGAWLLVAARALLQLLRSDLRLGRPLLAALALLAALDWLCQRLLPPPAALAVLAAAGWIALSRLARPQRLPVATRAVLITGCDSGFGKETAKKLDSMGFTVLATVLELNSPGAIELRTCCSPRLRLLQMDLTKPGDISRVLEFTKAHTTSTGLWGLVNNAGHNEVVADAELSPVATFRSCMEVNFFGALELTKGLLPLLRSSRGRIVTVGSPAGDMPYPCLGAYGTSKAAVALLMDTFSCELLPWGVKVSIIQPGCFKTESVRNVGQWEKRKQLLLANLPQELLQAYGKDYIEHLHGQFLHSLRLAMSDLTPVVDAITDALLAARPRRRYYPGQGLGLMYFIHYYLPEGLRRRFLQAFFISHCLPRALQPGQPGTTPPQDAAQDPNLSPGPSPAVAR

In the case of `COCO[C@H]1CC[C@@]2(C)[C@@H](CC[C@]3(C)[C@@H]2C(=O)C=C2[C@@H]4C[C@@](C)(C(=O)O)CC[C@]4(C)CC[C@]23C)[C@]1(C)C(=O)OCc1oc(=O)oc1C` [Compound 205-2, (2S,4aS,6aS,6bR,8aR,9S,10S,12aS,12bR,14bR)-10-(Methoxymethoxy)-2,4a,6a,6b,9,12a-hexamethyl-9-(((5-methyl-2-oxo-1,3-dioxol-4-yl)methoxy)carbonyl)-13-oxo-1,2,3,4,4a,5,6,6a,6b,7,8,8a,9,10,11,12,12a,12b,13,14b-icosahydropicene-2-carboxylic acid], the pIC50 (in general, the IC50 on a negative log10 scale, so that one unit is a factor of ten) is given as 6.4.
As to `CC(=O)O[C@]1(C)CC[C@@]2(C)[C@@H](CC[C@]3(C)[C@@H]2C(=O)C=C2[C@@H]4C[C@@](C)(C(=O)O)CC[C@]4(C)CC[C@]23C)[C@]1(C)C(=O)OCc1oc(=O)oc1C` [Compound 704-1, (2S,4aS,6aS,6bR,8aR,9S,10R,12aS,12bR,14bR)-10-(acetyloxy)-2,4a,6a,6b,9,10,12a-heptamethyl-9-{[(5-methyl-2-oxo-2H-1,3-dioxol-4-yl)methoxy]carbonyl}-13-oxo-1,2,3,4,4a,5,6,6a,6b,7,8,8a,9,10,11,12,12a,12b,13,14b-icosahydropicene-2-carboxylic acid], the pIC50 came to 6.3.
`CC(=O)O[C@H]1CC[C@@]2(C)[C@@H](CC[C@]3(C)[C@@H]2C(=O)C=C2[C@@H]4C[C@@](C)(C(=O)O)CC[C@]4(C)CC[C@]23C)[C@]1(C)C(=O)OCc1oc(=O)oc1-c1ccccc1` [Compound 707-1, (2S,4aS,6aS,6bR,8aR,9S,10S,12aS,12bR,14bR)-10-(acetyloxy)-2,4a,6a,6b,9,12a-hexamethyl-13-oxo-9-{[(2-oxo-5-phenyl-2H-1,3-dioxol-4-yl)methoxy]carbonyl}-1,2,3,4,4a,5,6,6a,6b,7,8,8a,9,10,11,12,12a,12b,13,14b-icosahydropicene-2-carboxylic acid] returned a pIC50 of 7.1.
As to `COCO[C@H]1CC[C@@]2(C)[C@@H](CC[C@]3(C)[C@@H]2C(=O)C=C2[C@@H]4C[C@@](C)(C(=O)O)CC[C@]4(C)CC[C@]23C)[C@]1(C)C(=O)O` [(2S,4aS,6aS,6bR,8aR,9S,10S,12aS,12bR,14bR)-10-(methoxymethoxy)-2,4a,6a,6b,9,12a-hexamethyl-13-oxo-1,2,3,4,4a,5,6,6a,6b,7,8,8a,9,10,11,12,12a,12b,13,14b-icosahydropicene-2,9-dicarboxylic acid], the pIC50 was determined as 5.1.
The value for `CC1(C)[C@@H](OCC(=O)OCc2oc(=O)oc2CO)CC[C@]2(C)[C@H]3C(=O)C=C4[C@@H]5C[C@@](C)(C(=O)O)CC[C@]5(C)CC[C@@]4(C)[C@]3(C)CC[C@@H]12` [Compound 711-1, (2S,4aS,6aS,6bR,8aR,10S,12aS,12bR,14bR)-10-(2-{[5-(hydroxymethyl)-2-oxo-2H-1,3-dioxol-4-yl]methoxy}-2-oxoethoxy)-2,4a,6a,6b,9,9,12a-heptamethyl-13-oxo-1,2,3,4,4a,5,6,6a,6b,7,8,8a,9,10,11,12,12a,12b,13,14b-icosahydropicene-2-carboxylic acid] was 5.8.
